Measured values published in patent US20180049996A1, “THERAPEUTIC AGENT FOR CHRONIC RESPIRATORY DISEASE AND COMPOSITION FOR INHIBITING CARDIAC FIBROSIS” (NIPPON HYPOX LABORATORIES INCORPORATED, priority 2015, published 2018).

Assays:
[1] = system: IL-4; assay: IL-4 level in BAL fluid (ELISA), ovalbumin asthma model; type: in vivo, BALB/c female mice; conditions: HTHQ 20 and 40 mg/kg/day oral; compared to OVA group
Procedure: 6 week old BALB/c female mice were purchased and the mice were divided into 5 groups with 5 animals per group shown in Table 3 below after habituation breeding of about 2 weeks.
The test was conducted on the schedule of sensitization, causing diseases and administration of test materials shown in FIG. 12. “IP” in FIG. 12 refers to ovalbumin sensitization treatment by the intraperitoneal administration of ovalbumin/aluminum hydroxide, and “IH” refers to inhalation exposure treatment of ovalbumin, and “PO” refers to the administration of the test materials. […]
All mice were euthanized by intraperitoneal injection of pentobarbital (Hanrimu pharmaceutical, South Korea) at 50 mg/kg and the bronchi were excised on day 25 of the test. […] After preparing slide samples from 100 μL of BAL cell fluid using Cytospin (4° C., 1000 rpm×5 min), the cell numbers of inflammatory cells (eosinophils, macrophages, lymphocytes and neutrophils) present in the BAL fluid were counted using a Diff-Quik stain kit.
The supernatant of the BAL fluid stored was taken out of the super-cryostat and IL-4, IL-5 and IL-13 levels were measured as the pro-inflammatory cytokine contents in the supernatant of the BAL fluid. A quantitative ELISA kit (a product from R&D systems) and a microplate reader (a product from Bio-Rad Laboratories, Inc.) were used for the measurement and the measurement wavelength was 450 nm.

[2] = system: Pulmonary Fibrosis Induced by Bleomycin; assay: Gross pathology of lungs, pulmonary fibrosis induced by bleomycin; type: in vivo, male SD rats; conditions: test groups 2 and 3: bleomycin 7.5 mg/kg + HTHQ 50 or 200 mg/kg/day oral; day 20
Procedure: Bleomycin is used to produce disease-model animals of interstitial pneumonia. The bleomycin and 2,3,5-trimethylhydroquinone-1-hexyl ether (HTHQ) as the hydroquinone derivative represented by the general formula (1) described above of the present invention were simultaneously administered to male SD rats of 10 week old after birth to examine the effect of the action. The test groups consisted of the control group to which sterile saline was administered; test group 1 to which bleomycin (7.5 mg/kg body weight) alone was administered; test group 2 to which bleomycin (7.5 mg/kg body weight) and HTHQ (50 mg/kg body weight/day) were administered in combination; and test group 3 to which bleomycin (7.5 mg/kg body weight) and HTHQ (200 mg/kg body weight/day) were administered in combination.
In test groups 1 to 3, bleomycin was orally administered in a single dose. In test groups 2 and 3, 2,3,5-trimethylhydroquinone-1-hexyl ether (HTHQ) was daily orally administered for 10 or 20 days starting from 24 h after the administration of bleomycin. In test group 1, olive oil, which was used as a solvent of HTHQ, was daily orally administered at 10 mL/kg/day starting from 24 h after the administration of bleomycin. The number of animals in each group was 16. […]

CCCCCCOc1cc(C)c(O)c(C)c1C [HTHQ, 2,3,5-trimethylhydroquinone-1-hexyl ether]
IL-4 content in BAL fluid [1]: significantly reduced | gross pathology of lungs (lesions) [2]: alleviated
